# Earlier results in US20260176636A1, “APTAMER-DIRECT INHIBITOR CONJUGATES AND METHODS OF USING THE SAME” (Duke University, priority 2022, published 2026).
# [invdT] = inverted (3'-3') thymidine
# System: human thrombin
# Conditions: approximately 1 μM; cited from earlier work
substance,measurement,value
"Tog25t: thrombin exosite II-targeting RNA aptamer, SEQ ID NO: 12 (GGGAACAAAGCUGAAGUACUUACCC; [invdT] at 3' end, other sugars and backbone not given here; further chemistry not fully specified)",effect on aPTT clotting time,modest extension in aPTT clotting time
